The record followed here is PMC5563081, “Modulating Protein-Protein Interactions of the Mitotic Polo-like Kinases to Target Mutant KRAS” (Cell Chemical Biology, 2017).

The structures appear in SMILES notation. Like-named read-outs stand apart in the source and are kept apart here.

Series [1] is described as follows: Stability in mouse hepatocytes. In kind it is in vitro ADME.
Series [2] has as its system HCT116 (KRAS G13D) xenografts. The series is described as follows: Xenograft study, tumour volume. Format: in vivo, mouse. The conditions noted are these: for Group Mean at Day 15 (tumour volume): HCT116 xenograft, vehicle 778. The procedure:
Male athymic mice were purchased from Harlan (UK) and acclimatised for 7 days prior to study commencement. Animals were housed in IVC cages (5 per cage) with individual mice identified by tail marking. All animals were allowed free access to a standard certified commercial diet and sanitised water during the study. The holding room was maintained under standard conditions: 20-24°C, 40-70% humidity and a 12h light/dark cycle. All experiments were performed under approved ethical and procedural guidelines.
Tumours were established by sub-cutaneous implantation of 2 x 10^6 HCT116 cells suspended in 50% Matrigel into the flanks of a cohort of mice. When a sufficient number of mice had developed tumours of approximately 100mm3, they were randomly assigned to three groups: Vehicle, 50mg/kg Poloppin-II or 200mg/kg Poloppin-II, with 10 mice per group. Mice were treated orally according to their treatment group once every three days. Tumour volume was measured three times per week with calipers. Body weight was measured three times per week. In addition to mice assigned to tumour volume efficacy arm of the study, 16 mice with established HCT116 xenografts were assigned to either Vehicle or 200mg/kg oral dosing groups, with 8 mice per group. 24 hours after a single dose, mice were euthanised, tumours removed, snap frozen and 30-50microgram of lysates were analysed by Western blotting on 4-12% Bis-Tris acrylamide gels, and transferred using the Invitrogen iBlot dry system. Phospho-Histone H3 was detected using Abcam antibody ab5176, beta-actin with Sigma antibody a5316. […] HRP was visualised with ECL-Plus (GE Healthcare).

The test system of another series is U2OS cells. The series is described as follows: Quantification of mitotic phenotypes by immunofluorescence. In kind it is cell-based, human. The note with it: 12.5 μM. How it is done:
Cells were plated on glass coverslips and incubated overnight. Cells were treated with compound diluted in medium for 24hrs. Medium was then removed and cells fixed in 20mM PIPES pH8, 20mM HEPES pH8, 5mM EGTA, 2mM MgCl, 0.2% Triton X-100 and 3.7% formaldehyde. Cells were washed in PBS containing 0.1% Tween-20 then incubated with anti-alpha tubulin antibody (Santa Cruz sc-32293) and anti-CREST antibody (Europa 90C-CS1058). Cells were washed then incubated with Alexa Fluor 568 labelled goat anti-mouse IgG (Invitrogen A11031) or Alexa Fluor 633 labelled goat anti-mouse IgG (Invitrogen A21052) and Alexa Fluor 488 goat anti-human IgG (Invitrogen A11013). Cells were washed and then mounted on glass slides in Vectashield mounting medium containing DAPI.

A further series relates to HPAF II. The series is described as follows: Cell viability (SRB), HPAF II. Format: cell-based. The conditions noted are these: Homo sapiens, 72 h. How it is done:
SW48 Parental, SW48 G12D, Panc-1, HPAF-II, Panc 02.03 and Panc 05.04 cell lines were seeded overnight at 5000 cells per well in a 96 well plate in recommended media (ATCC). Compounds were added the following day and viability was measured at 72h using the sulforhodamine B (SRB) colorimetric assay as follows. Cells were fixed by replacing media with 1% v/v Trichloroacetic Acid (TCA) (Sigma-Aldrich) at 4°C and incubated for 1h also at 4°C. Wells were washed thoroughly with copious amounts of deionised water before staining with Sulforhodamine B (SRB) (Sigma-Aldrich) solution (0.057% w/v in 1% v/v Acetic Acid (VWR)) for 30 min. […] Fluorescence intensity was recorded at Ex540nm / Em590nm using a BMG Pherastar Plus plate reader ([Vichai and Kirtikara, 2006]).
Pancreatic organoids were extracted and cultured as detailed above ([Boj et al., 2015]). […] Full-grown organoids were then treated with compounds for 72h and viability determined using CellTitre Glo 3D assay (Promega). […] The 96 well plates were treated with a dose range of compounds or DMSO, and viability was determined via SRB colorimetric assay. […]
Cells were reverse-transfected with 50nM (SW48 parental, SW48 KRAS G12D and Panc-1) or 25nM (HeLa Flp-In T-REx parental cells) siRNA using Dharmafect (GE Dharmacon) as manufacturer’s recommendations. […] Viability was assessed after 72 hrs, with the SRB colorimetric assay. […]

The test system of the next series is Panc 05.04. The series is described as follows: Cell viability (SRB), Panc 05.04. Format: cell-based. The conditions noted are these: Homo sapiens, Panc 05.04, 72 h. The procedure: SW48 Parental, SW48 G12D, Panc-1, HPAF-II, Panc 02.03 and Panc 05.04 cell lines were seeded overnight at 5000 cells per well in a 96 well plate in recommended media (ATCC). Compounds were added the following day and viability was measured at 72h using the sulforhodamine B (SRB) colorimetric assay as follows. Cells were fixed by replacing media with 1% v/v Trichloroacetic Acid (TCA) (Sigma-Aldrich) at 4°C and incubated for 1h also at 4°C. Wells were washed thoroughly with copious amounts of deionised water before staining with Sulforhodamine B (SRB) (Sigma-Aldrich) solution (0.057% w/v in 1% v/v Acetic Acid (VWR)) for 30 min. Stain was aspirated and wells washed with several changes of 1% v/v Acetic Acid until unbound stain was removed, before air-drying. Bound stain was solubilized with 100μl / well 10mM Tris (pH 8.0) (Trizma Base (121.1) Sigma-Aldrich) with agitation for 10 min. Fluorescence intensity was recorded at Ex540nm / Em590nm using a BMG Pherastar Plus plate reader ([Vichai and Kirtikara, 2006]).
Pancreatic organoids were extracted and cultured as detailed above ([Boj et al., 2015]). In brief, pancreatic organoids were seeded at 600 cells per well in a 96 well plate and allowed to grow for 7 days with media replenishment on the 3rd day. Full-grown organoids were then treated with compounds for 72h and viability determined using CellTitre Glo 3D assay (Promega). For viability assays with c-MET siRNA, cells were reverse transfected in a 6 cm dish using Dharmafect 1 (GE Dharmacon) per manufacturer’s instructions. On the following day, cells were trypsinised and plated onto 96 well plates or 6 well plates. The 96 well plates were treated with a dose range of compounds or DMSO, and viability was determined via SRB colorimetric assay. […]
Cells were reverse-transfected with 50nM (SW48 parental, SW48 KRAS G12D and Panc-1) or 25nM (HeLa Flp-In T-REx parental cells) siRNA using Dharmafect (GE Dharmacon) as manufacturer’s recommendations. […] Viability was assessed after 72 hrs, with the SRB colorimetric assay. Knockdown efficiencies were determined by Western blot or RT-qPCR. […]

For the molecule `CN(C)CCNC(=O)c1ccc(-c2ccc(-c3ccc(Cl)cc3)n2-c2ccccc2C(F)(F)F)cc1` [Poloppin-II], in series [1], the half-life was found to be 1.28 h and the hepatocyte CLint is 18 µL/min/1e6 cells. For the same molecule, the “growth of xenografted tumors” value in series [2] (50 mg/kg oral, HCT116 KRAS G13D) is “reduced the growth of xenografted tumors”. This molecule also displayed a Group Mean at Day 15 (tumour volume) in series [2] (50mg/kg oral every three days) of 415 mm³. Further, in series [2] (200mg/kg oral, treatment suspended after seven days), the Group Mean at Day 15 (tumour volume) came to 371 mm³.

Consider `O=C(O)CCc1ccc(-c2ccc(Br)cc2)n1-c1ccccc1C(F)(F)F` [Poloppin], for which the “cells with normal metaphase chromosome alignment” value in the series on U2OS cells is recorded as less than 5%. Moreover, the EC50 in the series with HPAF II (read-out: EC50, % survival, HPAF II, All Stars control siRNA, 72 h) stood at 12.4 ± 1.08 µM; in the series on HPAF II (read-out: EC50, % survival, HPAF II, siMET, 72 h), 5.6 ± 1.05 µM; in the series with Panc 05.04 (read-out: EC50, % survival, Panc 05.04, All Stars control siRNA, 72 h) it was 23.8 ± 1.08 µM; in the series on Panc 05.04 (read-out: EC50, % survival, Panc 05.04, siMET, 72 h), 11.6 ± 1.07 µM.

What is called half-life is the time in which the quantity being followed falls by half. Low values mean fast loss, high ones slow loss. What is called hepatocyte CLint is the capacity of the preparation to metabolise the compound, expressed as a volume cleared per time. For orientation: EC50 means the concentration at which the effect is half-maximal.
